Here are results for three compounds from patent US11208412B2 (DAEGU-GYEONGBUK MEDICAL INNOVATION FOUNDATION, priority 2017, dated 2021).

Holding throughout (experiment): Kinase selectivity, DiscoverX scanMAX Kinase assay panel (% control)
Common to all, as to type: binding

Experiment [1] deals with T1, kinases of the scanMAX Kinase assay panel (Homo sapiens, UniProt P0C264).
T1 construct: purchased DiscoverX Co. (contract measurement) scanMAX Kinase assay panel
T1 sequence (P0C264 1-359): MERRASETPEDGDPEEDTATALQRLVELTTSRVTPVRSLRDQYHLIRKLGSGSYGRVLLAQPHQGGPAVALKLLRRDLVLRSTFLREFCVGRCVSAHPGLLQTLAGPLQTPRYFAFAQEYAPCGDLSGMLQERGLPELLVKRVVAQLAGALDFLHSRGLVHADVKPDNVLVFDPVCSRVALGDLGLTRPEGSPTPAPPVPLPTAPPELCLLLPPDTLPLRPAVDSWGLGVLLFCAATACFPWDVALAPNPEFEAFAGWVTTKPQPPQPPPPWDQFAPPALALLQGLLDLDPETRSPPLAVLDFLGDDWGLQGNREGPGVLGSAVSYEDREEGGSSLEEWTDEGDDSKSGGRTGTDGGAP
The conditions noted are these: kinase SgK110; 1 uM in DMSO. In a few lines: (§1)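 Percent of control computed as (compound − positive control)/(negative control − positive control) × 100, DMSO defining 100% and positive control 0%. Each panel kinase exposed to 1 uM compound; values under 35% taken to mean the compound acts on that kinase.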

In experiment [2] the target is T2, kinases of the scanMAX Kinase assay panel (Homo sapiens, UniProt O75914).
T2 construct: purchased DiscoverX Co. (contract measurement) scanMAX Kinase assay panel
The conditions noted are these: PAK3; 1 uM. In a few lines: as §1

Experiment [3] concerns the target T3, kinases of the scanMAX Kinase assay panel (Homo sapiens, UniProt P10721, A829P).
T3 construct: purchased DiscoverX Co. (contract measurement) scanMAX Kinase assay panel
The conditions noted are these: KIT(A829P); 1 uM. The essentials: as §1

For experiment [4], the target named is T4, kinases of the scanMAX Kinase assay panel (Homo sapiens, UniProt P08581, Y1235D).
T4 construct: purchased DiscoverX Co. (contract measurement) scanMAX Kinase assay panel
The note with it: MET(Y1235D); 1 uM. In a few lines:
as §1

Experiment [5] addresses T5, kinases of the scanMAX Kinase assay panel (Homo sapiens, UniProt P42336, M1043I).
T5 construct: purchased DiscoverX Co. (contract measurement) scanMAX Kinase assay panel
The note with it: PIK3CA(M1043I); 1 uM. The essentials: as §1

For experiment [6], the target named is T6, kinases of the scanMAX Kinase assay panel (Homo sapiens, UniProt Q5VT25).
T6 construct: purchased DiscoverX Co. (contract measurement) scanMAX Kinase assay panel
The conditions noted are these: MRCKA; 1 uM. The essentials:
as §1

In experiment [7] the target is T7, kinases of the scanMAX Kinase assay panel (Homo sapiens, UniProt Q8WXR4).
T7 construct: purchased DiscoverX Co. (contract measurement) scanMAX Kinase assay panel
T7 sequence (Q8WXR4 1-1341): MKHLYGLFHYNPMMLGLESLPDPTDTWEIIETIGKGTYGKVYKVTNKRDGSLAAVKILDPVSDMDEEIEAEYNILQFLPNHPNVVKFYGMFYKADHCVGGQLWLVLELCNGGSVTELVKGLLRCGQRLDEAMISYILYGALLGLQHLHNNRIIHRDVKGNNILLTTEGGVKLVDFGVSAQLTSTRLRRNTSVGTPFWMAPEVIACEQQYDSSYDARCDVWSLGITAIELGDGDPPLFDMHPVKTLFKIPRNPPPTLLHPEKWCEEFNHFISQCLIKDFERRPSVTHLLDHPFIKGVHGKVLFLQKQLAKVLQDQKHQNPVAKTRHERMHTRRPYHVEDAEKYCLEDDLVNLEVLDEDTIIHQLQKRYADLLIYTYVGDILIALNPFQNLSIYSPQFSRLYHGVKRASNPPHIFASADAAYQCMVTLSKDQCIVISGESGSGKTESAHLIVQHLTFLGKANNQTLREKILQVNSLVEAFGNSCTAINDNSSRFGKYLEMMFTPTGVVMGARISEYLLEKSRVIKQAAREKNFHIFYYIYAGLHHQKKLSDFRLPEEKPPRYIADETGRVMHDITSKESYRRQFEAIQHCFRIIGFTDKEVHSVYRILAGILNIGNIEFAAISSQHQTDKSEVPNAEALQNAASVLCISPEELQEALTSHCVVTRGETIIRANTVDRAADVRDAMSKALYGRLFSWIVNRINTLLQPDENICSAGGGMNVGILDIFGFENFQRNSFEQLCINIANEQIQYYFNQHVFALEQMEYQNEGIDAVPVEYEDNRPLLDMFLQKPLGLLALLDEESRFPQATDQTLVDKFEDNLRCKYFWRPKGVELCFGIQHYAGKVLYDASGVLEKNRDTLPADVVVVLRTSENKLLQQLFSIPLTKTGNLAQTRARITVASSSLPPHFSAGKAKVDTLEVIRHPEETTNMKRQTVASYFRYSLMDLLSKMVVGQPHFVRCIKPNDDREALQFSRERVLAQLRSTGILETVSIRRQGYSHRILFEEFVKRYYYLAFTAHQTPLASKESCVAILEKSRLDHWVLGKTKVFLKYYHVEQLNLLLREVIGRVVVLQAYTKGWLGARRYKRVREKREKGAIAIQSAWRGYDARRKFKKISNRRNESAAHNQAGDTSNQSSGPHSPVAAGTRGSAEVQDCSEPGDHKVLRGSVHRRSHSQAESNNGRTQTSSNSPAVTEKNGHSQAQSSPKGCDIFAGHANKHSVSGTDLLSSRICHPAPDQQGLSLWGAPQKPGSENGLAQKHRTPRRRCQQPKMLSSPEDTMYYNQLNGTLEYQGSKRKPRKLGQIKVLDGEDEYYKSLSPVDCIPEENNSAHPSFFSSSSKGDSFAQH
The note with it: MYO3B; 1 uM. In a few lines:
as §1

The target in experiment [8] is T8, kinases of the scanMAX Kinase assay panel (Homo sapiens, UniProt Q9Y243).
T8 construct: purchased DiscoverX Co. (contract measurement) scanMAX Kinase assay panel
The conditions noted are these: AKT3; 1 uM. The essentials:
as §1

T4 sequence (P08581 25-1390 Y1235D): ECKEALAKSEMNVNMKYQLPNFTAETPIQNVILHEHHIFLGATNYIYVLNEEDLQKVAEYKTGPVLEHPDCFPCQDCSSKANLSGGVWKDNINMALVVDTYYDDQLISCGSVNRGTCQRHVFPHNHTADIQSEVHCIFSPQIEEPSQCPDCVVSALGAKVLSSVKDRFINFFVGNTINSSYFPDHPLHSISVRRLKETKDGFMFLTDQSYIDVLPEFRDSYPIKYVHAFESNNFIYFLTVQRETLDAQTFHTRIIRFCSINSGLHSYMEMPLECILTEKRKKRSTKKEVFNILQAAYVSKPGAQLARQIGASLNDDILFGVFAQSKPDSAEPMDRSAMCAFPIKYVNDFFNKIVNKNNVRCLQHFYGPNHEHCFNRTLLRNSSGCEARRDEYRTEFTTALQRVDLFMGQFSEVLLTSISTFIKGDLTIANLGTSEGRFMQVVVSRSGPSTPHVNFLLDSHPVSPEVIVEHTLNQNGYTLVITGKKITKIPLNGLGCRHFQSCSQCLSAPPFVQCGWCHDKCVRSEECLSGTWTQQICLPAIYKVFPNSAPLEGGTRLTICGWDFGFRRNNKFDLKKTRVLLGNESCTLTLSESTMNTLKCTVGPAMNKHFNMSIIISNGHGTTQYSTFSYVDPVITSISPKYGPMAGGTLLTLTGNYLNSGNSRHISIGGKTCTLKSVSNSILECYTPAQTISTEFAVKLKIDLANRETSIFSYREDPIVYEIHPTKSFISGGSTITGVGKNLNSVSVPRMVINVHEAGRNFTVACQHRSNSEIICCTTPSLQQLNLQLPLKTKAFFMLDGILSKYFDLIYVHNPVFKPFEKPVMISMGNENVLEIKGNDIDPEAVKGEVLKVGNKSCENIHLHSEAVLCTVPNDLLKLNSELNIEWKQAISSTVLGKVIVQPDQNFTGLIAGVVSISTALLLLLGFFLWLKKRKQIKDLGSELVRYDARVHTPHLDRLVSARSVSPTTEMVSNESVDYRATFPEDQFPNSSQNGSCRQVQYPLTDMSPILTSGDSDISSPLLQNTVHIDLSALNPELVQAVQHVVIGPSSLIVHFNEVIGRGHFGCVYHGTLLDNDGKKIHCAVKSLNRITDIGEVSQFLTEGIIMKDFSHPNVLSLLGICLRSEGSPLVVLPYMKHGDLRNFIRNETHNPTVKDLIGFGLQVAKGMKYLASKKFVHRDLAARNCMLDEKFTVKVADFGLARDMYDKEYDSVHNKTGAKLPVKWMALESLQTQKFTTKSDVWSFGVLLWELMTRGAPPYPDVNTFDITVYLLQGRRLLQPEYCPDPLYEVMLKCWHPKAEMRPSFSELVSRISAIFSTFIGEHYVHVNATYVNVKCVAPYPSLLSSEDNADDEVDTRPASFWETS
T5 sequence (P42336 whole entry M1043I): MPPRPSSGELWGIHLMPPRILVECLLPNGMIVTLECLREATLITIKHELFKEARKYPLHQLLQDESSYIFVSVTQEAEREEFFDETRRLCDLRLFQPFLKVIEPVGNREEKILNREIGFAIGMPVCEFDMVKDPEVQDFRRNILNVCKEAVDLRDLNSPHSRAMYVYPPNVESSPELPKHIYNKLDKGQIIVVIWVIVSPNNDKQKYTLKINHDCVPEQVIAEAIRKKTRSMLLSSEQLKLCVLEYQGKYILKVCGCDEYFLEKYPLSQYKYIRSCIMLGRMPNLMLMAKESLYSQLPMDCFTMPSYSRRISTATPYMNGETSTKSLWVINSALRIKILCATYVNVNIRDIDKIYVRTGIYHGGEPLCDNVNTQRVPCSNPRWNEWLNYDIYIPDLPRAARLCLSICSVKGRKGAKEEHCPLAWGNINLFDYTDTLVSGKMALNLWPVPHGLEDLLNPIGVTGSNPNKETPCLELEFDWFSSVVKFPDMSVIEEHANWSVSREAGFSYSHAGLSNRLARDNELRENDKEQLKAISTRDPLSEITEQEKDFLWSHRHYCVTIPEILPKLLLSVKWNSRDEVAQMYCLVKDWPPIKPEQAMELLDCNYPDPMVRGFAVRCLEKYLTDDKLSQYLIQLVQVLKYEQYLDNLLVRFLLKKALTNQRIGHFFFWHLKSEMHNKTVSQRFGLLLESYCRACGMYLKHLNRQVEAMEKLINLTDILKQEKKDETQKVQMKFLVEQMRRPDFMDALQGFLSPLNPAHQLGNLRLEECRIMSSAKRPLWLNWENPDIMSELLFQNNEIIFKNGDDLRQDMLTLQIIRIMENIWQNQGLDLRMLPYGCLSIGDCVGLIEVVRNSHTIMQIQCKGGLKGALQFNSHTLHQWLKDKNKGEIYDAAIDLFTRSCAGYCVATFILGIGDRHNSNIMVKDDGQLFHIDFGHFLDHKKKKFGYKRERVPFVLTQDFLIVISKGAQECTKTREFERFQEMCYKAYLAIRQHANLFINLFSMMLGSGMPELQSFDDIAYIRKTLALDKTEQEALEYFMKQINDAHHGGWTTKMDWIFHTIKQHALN
T8 sequence (Q9Y243 whole entry): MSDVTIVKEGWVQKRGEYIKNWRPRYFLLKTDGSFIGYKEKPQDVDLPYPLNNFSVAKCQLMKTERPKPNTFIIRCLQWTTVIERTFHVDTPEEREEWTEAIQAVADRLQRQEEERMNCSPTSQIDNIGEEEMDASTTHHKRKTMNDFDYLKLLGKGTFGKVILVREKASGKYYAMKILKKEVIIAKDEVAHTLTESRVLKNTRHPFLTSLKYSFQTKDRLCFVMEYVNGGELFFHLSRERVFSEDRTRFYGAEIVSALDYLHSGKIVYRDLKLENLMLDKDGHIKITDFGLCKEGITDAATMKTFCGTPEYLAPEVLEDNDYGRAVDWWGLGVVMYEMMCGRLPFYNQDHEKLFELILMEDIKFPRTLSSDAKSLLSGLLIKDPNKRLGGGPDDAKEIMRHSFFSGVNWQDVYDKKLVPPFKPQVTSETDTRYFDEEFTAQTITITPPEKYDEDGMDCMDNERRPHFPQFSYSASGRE
T3 sequence (P10721 26-976 A829P): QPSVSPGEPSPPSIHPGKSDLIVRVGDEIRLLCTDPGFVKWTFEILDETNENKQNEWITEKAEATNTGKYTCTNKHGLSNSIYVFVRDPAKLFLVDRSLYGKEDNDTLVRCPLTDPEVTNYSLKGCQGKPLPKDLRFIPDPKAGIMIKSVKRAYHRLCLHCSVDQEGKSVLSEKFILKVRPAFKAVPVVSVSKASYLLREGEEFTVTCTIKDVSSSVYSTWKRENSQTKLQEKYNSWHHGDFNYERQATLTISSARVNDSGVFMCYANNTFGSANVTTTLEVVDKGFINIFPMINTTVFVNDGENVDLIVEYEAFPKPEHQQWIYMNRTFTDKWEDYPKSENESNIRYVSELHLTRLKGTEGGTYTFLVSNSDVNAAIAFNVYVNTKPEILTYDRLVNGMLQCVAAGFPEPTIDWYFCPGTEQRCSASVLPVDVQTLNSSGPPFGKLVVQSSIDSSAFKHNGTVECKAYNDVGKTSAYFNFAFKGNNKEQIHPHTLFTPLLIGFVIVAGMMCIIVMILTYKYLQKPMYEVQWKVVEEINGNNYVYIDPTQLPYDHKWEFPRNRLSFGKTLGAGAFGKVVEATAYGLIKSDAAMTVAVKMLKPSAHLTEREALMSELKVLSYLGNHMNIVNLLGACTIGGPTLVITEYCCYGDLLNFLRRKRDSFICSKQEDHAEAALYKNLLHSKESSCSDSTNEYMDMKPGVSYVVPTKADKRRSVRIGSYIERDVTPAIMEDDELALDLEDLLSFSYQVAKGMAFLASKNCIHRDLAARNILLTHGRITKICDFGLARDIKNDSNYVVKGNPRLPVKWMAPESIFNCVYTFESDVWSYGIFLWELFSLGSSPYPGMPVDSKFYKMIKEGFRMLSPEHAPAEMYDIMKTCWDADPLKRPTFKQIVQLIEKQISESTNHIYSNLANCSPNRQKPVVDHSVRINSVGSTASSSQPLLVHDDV
T2 sequence (O75914 whole entry): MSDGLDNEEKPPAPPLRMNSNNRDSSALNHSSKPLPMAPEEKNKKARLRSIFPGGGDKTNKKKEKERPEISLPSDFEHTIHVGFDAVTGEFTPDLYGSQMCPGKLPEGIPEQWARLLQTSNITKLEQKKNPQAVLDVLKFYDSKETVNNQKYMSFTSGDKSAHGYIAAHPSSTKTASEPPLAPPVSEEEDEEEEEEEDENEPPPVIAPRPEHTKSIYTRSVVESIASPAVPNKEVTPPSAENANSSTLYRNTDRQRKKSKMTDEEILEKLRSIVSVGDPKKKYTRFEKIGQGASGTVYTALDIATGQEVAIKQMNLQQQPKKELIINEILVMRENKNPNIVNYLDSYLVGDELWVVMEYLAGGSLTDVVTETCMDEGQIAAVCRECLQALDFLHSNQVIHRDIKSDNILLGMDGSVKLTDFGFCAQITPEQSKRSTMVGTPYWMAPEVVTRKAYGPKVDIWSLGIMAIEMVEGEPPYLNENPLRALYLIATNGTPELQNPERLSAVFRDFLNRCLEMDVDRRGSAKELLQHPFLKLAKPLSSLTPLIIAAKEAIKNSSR

With `CNc1nc(Nc2ccc(C(=O)N3CCOCC3)cc2OC)nc2[nH]cc(C#N)c12` [Example 1, 2-((2-methoxy-4-(morpholine-4-carbonyl)phenyl)amino)-4-(methylamino)-7H-pyrrolo[2,3-d]pyrimidine-5-carbonitrile], the remaining binding at 1 µM in experiment [1] worked out at 100%; in experiment [2] it was 68%; in experiment [3], 60%; in experiment [4], 82%; in experiment [5], 94%; in experiment [6] it was 100%. The remaining binding at 1 µM worked out at 84% in experiment [7] and 70% in experiment [8].

Take `CC1(Nc2nc(Nc3cnn([C@H]4CCN(C5COC5)C[C@@H]4F)c3Cl)nc3[nH]cc(C#N)c23)CC1` [Example 52, 2-((5-chloro-1-((3S,4S)-3-fluoro-1-(oxetane-3-yl)piperidine-4-yl)-1H-pyrazole-4-yl)amino)((1-methylcyclopropyl)amino)-7H-pyrrolo[2,3-d]pyrimidine-5-carbonitrile]: the remaining binding at 1 µM is 32% in experiment [1]; 17% in experiment [2]; 11% in experiment [3]; 31% in experiment [4]; 37% in experiment [5]; 100% in experiment [6]. Moreover, the remaining binding at 1 µM in experiment [7] was 10%; in experiment [8], 4.5%.

Regarding `CCNc1nc(Nc2ccc(C(=O)N3CCC(N4CCOCC4)CC3)cc2OC)nc2[nH]cc(C(F)(F)F)c12` [Example 104, (4-((4-(ethylamino)-5-(trifluoromethyl)-7H-pyrrolo[2,3-d]pyrimidine-2-yl)amino)-3-methoxyphenyl)(4-morpholinopiperidine-1-yl)methanone], the remaining binding at 1 µM worked out at 100% in experiment [1]; 100% in experiment [2]; 100% in experiment [3]; 100% in experiment [4]; 84% in experiment [5]; 100% in experiment [6]. The remaining binding at 1 µM in experiment [7] was 19%; in experiment [8], 100%.
